The values that follow come from patent US11407796B2, “Antisecretory factor 17” (LANTMÄNNEN AS-FAKTOR AB, priority 2016, dated 2022).

Where two headings read alike, the source gives them in different places. Ends that are not written are not given here. Peptide text beside a SMILES is read from it. * marks the point of attachment. Succinimide(1-Et,3-yl) = CCN1C(=O)CC(*)C1=O Some results are limits rather than exact numbers.

The nature of series [1]: AF16 and AF16-NEM stability in human plasma. The series is classed as in vitro ADME. The note with it: for half-life: 37° C. Here is the method:
Test of AF16 and AF16-NEM stability in plasma was performed using pooled human plasma (4 donors, two female+two male) in HPLC glass vials at 37° C. (20 μM incubation conc.). Four different matrices were tested: Plasma: isotonic 67 mM potassium phosphate pH 7.4 (KP) (1:1), plasma:KP+0.1 mM DTT, KP and KP+0.1 mM DTT. Incubation times were 0, 1.5 and 3 h. At the indicated times a 50 μl aliquot was extracted and quenched/precipitated in 150 μl ice-cold methanol and frozen until analysis. Relative quantification was performed UPLC-MS/MS.
AF16, the stable isotope labeled (SIL) AF16 and the alkylated analog AF16-NEM were incubated at 1 μM in human plasma: 0.1M potassium phosphate pH 7.4 (KP) (1:1), human plasma: KP (1:1)+1 mM DTT, KP or KP+1 mM DTT over 3 h at 37° C. to investigate stability. KP was included to provide buffer capacity to the plasma and to not confuse the results with pH related effects.

Series [2] in a line: AF16 metabolite identification in human plasma. The series is classed as in vitro ADME. As to the method: (§1) (10 μM incubation conc.).
(§2) The flow rate was 0.5 ml/min.
(§3) AF16 and the isotopically labelled peptide in similar quantity were incubated in plasma of rat and human as described above. For analysis of full scan MS data, the metabolite identification software from Sciex, Lightsight, was used, which compares the incubated MS response to the quality control (QC) sample and assigns apparent peaks as metabolites with specific mass over charge (m/z) values. The software is currently not optimal to use with multi-charged compounds such as peptides so the hit-rate of metabolite detection is fairly high and manual assessment of each found peak had to be performed. The largest metabolite peak areas were then rank ordered and in some cases verified by MS/MS fragmentation. Skyline methodology was used to predict fragmentation of the identified peptides, but also aided in creating sensitive MRM methods so that low amounts could be monitored.

Series [3] has as its system Caco-2 cells. As to the kind of experiment: AF16 stability and metabolite formation with Caco-2 cells. The class given is in vitro ADME. As to the method:
(§4) Investigation of the fate of AF16 in the presence of Caco-2 cells was performed on three separate occasions. Firstly, a quantitative measurement was performed using MRM methodology (table 1) over 0, 15, 30 and 60 min. Here, AF16 or its possible sulfonic acid metabolite was monitored both in the apical and in the basolateral compartment (not shown). The second experiment was a qualitative determination of the fate of AF16 during a 60 min incubation. 50 μM AF16 in HBSS buffer was incubated at the apical side of the Caco-2 cell monolayer and 100 μl aliquots was extracted at 5, 10, 20, 30 and 60 min. The sample was placed on a 96-well plate containing 100 μl MeCN/H2O. The plate was sealed and frozen until full-scan UPLC-MS analysis (see below and table 2). The third experiment was a mirror of the second and the only difference was that a HBSS solution of AF16:AF16 IS (1:1) was used, to aid in the structure elucidation.
(§5) All samples from the different assays were analyzed by UPLC-MS/MS. The following system was used, a Waters XEVO TQ triple-quadrupole mass spectrometer (electrospray ionization, ESI) coupled to a Waters Acquity UPLC (VVaters Corp.). For chromatographic separation a general gradient was used (1% mobile phase B to 50% over 3 min total run) on a C18 BEH 1.7 μm column 2×100 mm (VVaters Corp.). Mobile phase A consisted of 0.05% TFA and mobile phase B 100% acetonitrile. The flow rate was 0.5 ml/min. In the full-scan MS analysis the same chromatographic settings was used except that 10 μl was injected (full loop). The MS was set to scan for ions in the 100-400 or 400-700 m/z window using the cone voltage in table 1.
(§6) It is well known that in the intestine, and as such at the apical side of Caco-2 cells, brush-border peptidases exist. To further investigate this, a separate experiment was designed. Caco-2 cells were exposed at the apical side to 50 μM AF16, with or without a protease inhibitor cocktail, and were sampled over 1 h.

Series [4] is described as follows: AF16 metabolite identification in rat plasma. The series is classed as in vitro ADME. Here is the method: as §1, §2, §3
Series [5] is described as follows: Kinetics of AF16 and metabolites in plasma with ZnSO4 precipitant +/-DTT. The series is classed as in vitro ADME, human, rat. Particulars: plasma precipitated with ZnSO4, +/−DTT. An excerpt: The kinetics shown in FIG. 13 was surprising given the fact that DTT was used in the quenching solution with TCA, although it is likely that the reducing capability of DTT is lowered in acidic conditions. It was therefore tested if the same pattern occurred when using a neutral precipitant ZnSO4 (without NaOH). This precipitation method is not as efficient but would hopefully give more information on the formation of the major disulfide products.

For series [6] the following is noted: plasma.
Series [7] is described as follows: AF16 stability and metabolite formation with Caco-2 cells. The class given is in vitro ADME. The note with it: Caco-2, 50 μM, apical side of Caco-2 cells. As to the method: as §4, §5, §6
Setting [8] is: human plasma:KP (1:1) + DTT, read-out: in vitro half-life (t½) with DTT (converted).
[9] abbreviates: human plasma:KP pH 7.4 (1:1), no DTT, read-out: in vitro half-life (t½) (converted).
Setting [10] is: 30 min incubation of AF16, (+) inhibitor cocktail.
Where [11] appears, read: 30 min incubation of AF16, (−) inhibitor cocktail.
Setting [12] is: 60 min incubation of AF16, (+) inhibitor cocktail.
Where [13] appears, read: 60 min incubation of AF16, (−) inhibitor cocktail.

As to `CCN1C(=O)CC(SC[C@H](NC(=O)[C@@H](N)C(C)C)C(=O)N[C@@H](Cc2c[nH]cn2)C(=O)N[C@@H](CO)C(=O)N[C@@H](CCCCN)C(=O)N[C@H](C(=O)N[C@@H](CCCNC(=N)N)C(=O)N[C@@H](CO)C(=O)N[C@@H](CC(N)=O)C(=O)N2CCC[C@H]2C(=O)N[C@@H](CCC(=O)O)C(=O)N[C@@H](CC(N)=O)C(=O)N[C@@H](CC(N)=O)C(=O)N[C@H](C(=O)NCC(=O)N[C@@H](CC(C)C)C(=O)O)C(C)C)[C@@H](C)O)C1=O` (stereo partly shown) [AF16-NEM] (H-VC(Succinimide(1-Et,3-yl))HSKTRSNPENNVGL-OH; N-terminus and C-terminus assumed), in series [1] (human plasma, no DTT), the “fold higher stability than AF16” value is reported as around 5 fold. Also, the half-life in series [1] (setting [8]) was 252 min; in series [1] (setting [9]), 108 min.
Regarding `CC(C)C[C@H](NC(=O)CNC(=O)[C@@H](NC(=O)[C@H](CC(N)=O)NC(=O)[C@H](CC(N)=O)NC(=O)[C@H](CCC(=O)O)NC(=O)[C@@H]1CCCN1C(=O)[C@H](CC(N)=O)NC(=O)[C@H](CO)NC(=O)[C@H](CCCNC(=N)N)NC(=O)[C@@H](NC(=O)[C@H](CCCCN)NC(=O)[C@H](CO)NC(=O)[C@@H](N)Cc1c[nH]cn1)[C@@H](C)O)C(C)C)C(=O)O` [M3, HSK TRSNP ENNVG L] (H-HSKTRSNPENNVGL-OH; N-terminus and C-terminus assumed), the “% of QC area at 30 min incubation time” value in series [2] turned out to be 0.9%; in series [4], 0.4%. The “Tentative amounts (%) of molecular species” value is 2% in series [3] (setting [10]), 38% in series [3] (setting [11]), 4% in series [3] (setting [12]) and 24% in series [3] (setting [13]).
For “C[SCC]HSKTRSNPENNVGL (not fully specified (N-terminus); printed as C[SCC]HSKTRSNPENNVGL; also: [SCC] on the N-terminal Cys, meaning not given here) [M10]”, the “resilience of the disulfide against DTT reduction” value in series [5] is “resilient”.
On to `CC(C)C[C@H](NC(=O)CNC(=O)[C@@H](NC(=O)[C@H](CC(N)=O)NC(=O)[C@H](CC(N)=O)NC(=O)[C@H](CCC(=O)O)NC(=O)[C@@H]1CCCN1C(=O)[C@H](CC(N)=O)NC(=O)[C@H](CO)NC(=O)[C@H](CCCNC(=N)N)NC(=O)[C@@H](NC(=O)[C@H](CCCCN)NC(=O)[C@H](CO)NC(=O)[C@H](Cc1c[nH]cn1)NC(=O)[C@H](CS)NC(=O)[C@@H](N)C(C)C)[C@@H](C)O)C(C)C)C(=O)O` [AF16, VCHSKTRSNPENNVGL] (H-VCHSKTRSNPENNVGL-OH; N-terminus and C-terminus assumed), for which the “% of QC area at 30 min incubation time” value in series [2] is 1%; in series [4], 4%. For the same molecule, the half-life in series [6] was at most 10 min; in series [7] (with protease inhibitor cocktail (Bestatin, Diprotin A, Captopril), read-out: t½ of degradation with inhibitor cocktail), 57 min; in series [7] (without inhibitor cocktail, read-out: t½ of degradation), 8 min; in series [1] (setting [8]) it was 66 min; in series [1] (setting [9]), 24 min. Moreover, in series [3] (50 μM, apical side of Caco-2 cells, with protease inhibitor cocktail (Bestatin, Diprotin A, Captopril)), the “t½ of degradation with inhibitor cocktail” value worked out at 55 min. The “Tentative amounts (%) of molecular species” value came out at 79% in series [3] (setting [10]), 6% in series [3] (setting [11]), 63% in series [3] (setting [12]) and 1% in series [3] (setting [13]).
